Assay results reported in patent US10414811B2, “Protease-resistant lipidated GLP-1 analogs” (MEDIMMUNE LIMITED, priority 2015, dated 2019).
Like-named read-outs stand apart in the source and are kept apart here. Numbered stars: 1 amine (or outer) side, 2 acyl side, 3 side chain; on linkers, the order of the positions; unused ones are H or OH. Square brackets hold non-standard residues; d marks the D form. Side chains are listed from the residue outwards. Peptide text beside a SMILES is read from it. * marks the point of attachment. C18 diacid = O=C(O)CCCCCCCCCCCCCCCCC(=O)*; γGlu = O=C(O)[C@H](CCC(=O)[*:2])N[*:1]; αMeF = C[C@](N)(Cc1ccccc1)C(=O)O; αMeK = C[C@](N)(CCCCN)C(=O)O; αMeS = C[C@](N)(CO)C(=O)O; AEEA = NCCOCCOCC(=O)O; Aib = CC(C)(N)C(=O)O

What was measured:
GLP-1R (INS1e assay) = target: T1, GLP-1R (INS1e assay) (Rattus norvegicus, UniProt P32301); assay: INS1e assay, cAMP activity at GLP-1R; format: cell-based; conditions: mono-lipidated peptides
T1 construct: endogenous in cells; host or cells: INS-1E cells
T1 sequence (P32301 22-463): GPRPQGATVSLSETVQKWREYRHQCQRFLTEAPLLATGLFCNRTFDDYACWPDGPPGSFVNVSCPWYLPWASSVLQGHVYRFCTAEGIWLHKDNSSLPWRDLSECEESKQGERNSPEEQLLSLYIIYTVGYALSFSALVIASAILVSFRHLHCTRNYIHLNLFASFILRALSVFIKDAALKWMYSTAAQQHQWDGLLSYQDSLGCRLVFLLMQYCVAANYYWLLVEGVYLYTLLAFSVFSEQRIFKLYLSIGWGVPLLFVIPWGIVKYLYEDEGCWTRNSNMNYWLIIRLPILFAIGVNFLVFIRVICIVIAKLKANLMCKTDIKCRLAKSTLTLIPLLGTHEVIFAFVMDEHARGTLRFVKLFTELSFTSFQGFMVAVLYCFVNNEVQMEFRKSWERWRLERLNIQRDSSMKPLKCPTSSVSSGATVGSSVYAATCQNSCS
In short: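 It pairs cAMP-d2 acceptor with anti-cAMP cryptate donor, both prepared 1/20 in conjugate/lysis buffer, applied as a two-step protocol.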

Neprilysin = target: T2, Neprilysin (Homo sapiens, UniProt P08473); assay: Proteolytic resistance to neprilysin (% remaining peptide, RP-HPLC AUC); format: in vitro ADME; conditions: 37° C., pH 8.3; for remaining at 0.5 h / remaining at 1 h / remaining at 2 h / remaining at 4 h / remaining at 8 h / remaining at 24 h: recombinant neprilysin; for remaining at 0.5 h: t = 30 min; for remaining at 1 h: t = 1 hr; for remaining at 2 h: t = 2 hr; for remaining at 4 h: t = 4 hr; for remaining at 8 h: t = 8 hr; for remaining at 24 h: t = 24 hr, read-out: Percentage remaining peptide (AUC at specified time-point by RP-HPLC) upon incubation with neprilysin, t = 24 hr
T2 construct: purchased R&D Systems 1182-ZNC-010
T2 sequence (P08473 whole entry): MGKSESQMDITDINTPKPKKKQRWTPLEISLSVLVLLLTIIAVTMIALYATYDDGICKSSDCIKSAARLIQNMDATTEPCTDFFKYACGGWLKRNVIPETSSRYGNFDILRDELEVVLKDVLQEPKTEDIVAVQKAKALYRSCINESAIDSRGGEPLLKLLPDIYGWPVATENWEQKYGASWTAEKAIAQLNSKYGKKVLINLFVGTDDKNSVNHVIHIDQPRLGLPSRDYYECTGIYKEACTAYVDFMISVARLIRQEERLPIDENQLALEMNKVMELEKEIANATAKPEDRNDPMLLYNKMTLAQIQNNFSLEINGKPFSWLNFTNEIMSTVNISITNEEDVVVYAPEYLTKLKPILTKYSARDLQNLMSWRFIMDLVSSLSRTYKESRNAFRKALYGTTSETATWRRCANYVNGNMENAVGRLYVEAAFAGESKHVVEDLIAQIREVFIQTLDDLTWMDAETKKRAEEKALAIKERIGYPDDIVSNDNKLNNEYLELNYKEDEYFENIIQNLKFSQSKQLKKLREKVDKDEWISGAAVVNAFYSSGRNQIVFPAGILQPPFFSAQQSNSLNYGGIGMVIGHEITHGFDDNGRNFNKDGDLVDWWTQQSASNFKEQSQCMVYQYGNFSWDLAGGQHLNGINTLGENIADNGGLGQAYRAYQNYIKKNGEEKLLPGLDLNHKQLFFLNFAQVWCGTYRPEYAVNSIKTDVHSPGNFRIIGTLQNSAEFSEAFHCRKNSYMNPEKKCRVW
Protocol: Ratio enzyme (units):peptide (μmoles)˜1:33. […] Ratio enzyme (units):peptide (μmoles)˜1:2.5.
15 μL aliquots (˜15 μg initial peptide) of the peptide-enzyme mixture were periodically withdrawn (t=0, 30 mins, 1 hr, 2 hr, 4 hr, 8 hr, 24 hr) and quenched immediately by addition to an equal volume (15 μL) of 5% TFA (v/v) in 1:1 water/acetonitrile to arrest proteolytic activity. 20 μL aliquots (˜10 μg initial peptide) were analyzed by LC/MS and/or analytical RP-HPLC as follows: LC/MS method: Agilent Polaris C8-A column (4.6×100 mm, 3 micron) eluted with a linear binary gradient of 10-90% MeCN (0.1% TFA v/v) in water (0.1% TFA v/v) over 30 mins at 1.5 mL min-1 at ambient temperature with detection by both UV absorption at 210 nm and ionization using a Waters 3100 mass detector (ESI+ mode). Peptide fragments deriving from enzymatic hydrolysis were identified by molecular weight, allowing location of the site of cleavage. Analytical RP-HPLC method: Agilent Polaris C8-A column (4.6×100 mm, 3 micron) eluted with a linear binary gradient of 10-90% MeCN (0.1% TFA v/v) in water (0.1% TFA v/v) over either 10 or 15 mins at 1.5 mL min^−1 at 40° C. with detection by UV absorption at 210 nm. Manual integration (AUC) allowed estimation of remaining intact peptide over the time course of the experiment.
25 μL aliquots (˜6 μg initial peptide) were analyzed by LC/MS and/or analytical RP-HPLC as follows: LC/MS method: Agilent Polaris C8-A column (4.6×100 mm, 3 micron) eluted with a linear binary gradient of 10-90% MeCN (0.1% TFA v/v) in water (0.1% TFA v/v) over 30 mins at 1.5 mL min^−1 at ambient temperature with detection by both UV absorption at 210 nm and ionization using a Waters 3100 mass detector (ESP mode). Peptide fragments deriving from enzymatic hydrolysis were identified by molecular weight, allowing location of the site of cleavage. Analytical RP-HPLC method: Agilent Polaris C8-A column (4.6×100 mm, 3 micron) eluted with a linear binary gradient of 10-90% MeCN (0.1% TFA v/v) in water (0.1% TFA v/v) over either 10 or 15 mins at 1.5 mL min^−1 at 40° C. with detection by UV absorption at 210 nm. Manual integration (AUC) allowed estimation of remaining intact peptide over the time course of the experiment.

trypsin = target: T3, trypsin (Sus scrofa, UniProt P00761); assay: Proteolytic resistance to trypsin (% remaining intact peptide, RP-HPLC AUC); format: in vitro ADME; conditions: pig, porcine pancreatic trypsin, 37° C., pH 7.8, read-out: Percentage remaining intact peptide (AUC by RP-HPLC) upon incubation with trypsin; for remaining at 0.5 h: t = 30 min; for remaining at 1 h: t = 1 hr; for remaining at 2 h: t = 2 hr; for remaining at 4 h: t = 4 hr; for remaining at 8 h: t = 8 hr; for remaining at 24 h: t = 24 hr
T3 construct: purchased Sigma T7409
T3 sequence (P00761 9-231): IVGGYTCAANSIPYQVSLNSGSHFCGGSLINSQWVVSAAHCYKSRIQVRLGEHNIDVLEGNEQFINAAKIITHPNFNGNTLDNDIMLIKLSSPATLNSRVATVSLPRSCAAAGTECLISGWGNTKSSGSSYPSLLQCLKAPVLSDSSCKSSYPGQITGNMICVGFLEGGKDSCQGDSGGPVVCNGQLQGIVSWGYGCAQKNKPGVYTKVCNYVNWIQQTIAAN
Excerpt: Ratio enzyme (units):peptide (μmoles)˜1:11. […] Ratio enzyme (units):peptide (μmoles)˜1.2:1.

[1] = target: T4, human GLP-1 receptor (GLP-1R) (Homo sapiens, UniProt P43220); assay: cAMP assay, human GLP-1R cells; format: cell-based
T4 construct: expressed in transfected cells
T4 sequence (P43220 24-463): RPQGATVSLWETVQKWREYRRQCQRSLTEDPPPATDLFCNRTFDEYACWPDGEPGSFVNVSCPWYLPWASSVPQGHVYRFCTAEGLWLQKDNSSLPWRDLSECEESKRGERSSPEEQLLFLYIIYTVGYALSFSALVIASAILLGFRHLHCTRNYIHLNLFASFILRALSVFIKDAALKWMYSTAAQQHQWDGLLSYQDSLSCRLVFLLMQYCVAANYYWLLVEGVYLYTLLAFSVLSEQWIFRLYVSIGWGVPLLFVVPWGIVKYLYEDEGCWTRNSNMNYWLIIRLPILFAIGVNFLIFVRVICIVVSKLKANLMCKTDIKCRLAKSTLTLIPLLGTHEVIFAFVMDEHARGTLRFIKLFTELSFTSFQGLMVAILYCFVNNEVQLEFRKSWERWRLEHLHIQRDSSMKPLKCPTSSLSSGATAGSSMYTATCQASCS
In short: (§1)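 Peptide-stimulated cAMP measured by two-step HTRF after a 30 min room-temperature incubation with receptor-expressing cells (hGLP-1R, hGIPR at 1×10^5 cells/ml; hGCGR at 2×10^5 cells/ml). Duplicate dilutions; EC50 from 4-parameter logistic fit of % Delta F.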

pepsin = target: T5, pepsin (Sus scrofa, UniProt P00791); assay: Proteolytic resistance to pepsin (% remaining intact peptide, RP-HPLC AUC); format: in vitro ADME; conditions: pig, porcine pepsin, 37° C., pH 2.0, read-out: Percentage remaining intact peptide (AUC by RP-HPLC) upon incubation with pepsin; for remaining at 0.5 h: t = 30 min; for remaining at 1 h: t = 1 hr; for remaining at 2 h: t = 2 hr; for remaining at 4 h: t = 4 hr; for remaining at 8 h: t = 8 hr; for remaining at 24 h: t = 24 hr
T5 construct: purchased Sigma P7012
T5 sequence (P00791 60-385): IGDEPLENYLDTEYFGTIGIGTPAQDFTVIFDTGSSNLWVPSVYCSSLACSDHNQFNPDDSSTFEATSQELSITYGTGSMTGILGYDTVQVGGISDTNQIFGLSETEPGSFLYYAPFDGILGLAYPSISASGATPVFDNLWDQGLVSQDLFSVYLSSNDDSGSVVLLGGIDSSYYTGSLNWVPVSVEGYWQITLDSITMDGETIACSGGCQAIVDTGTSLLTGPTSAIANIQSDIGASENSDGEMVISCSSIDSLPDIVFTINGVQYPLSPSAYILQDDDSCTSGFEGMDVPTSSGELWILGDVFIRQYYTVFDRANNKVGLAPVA
Protocol: Lyophilized porcine […] pepsin (Sigma: P7012) was reconstituted to afford a solution of 200 μg/mL (˜500 units/mL) in assay buffer (0.1 M HCl, pH 2.0) to give the enzyme stock solution. […] Ratio enzyme (units):peptide (μmoles)˜1:6. […] Ratio enzyme (units):peptide (μmoles)˜2:1.
Lyophilized porcine […] pepsin (Sigma: P7012) was reconstituted to 200 μg/mL (˜500 units/mL) in assay buffer (1.0 M HCl, pH 2.0) to give the enzyme stock solution.

[2] = target: T6, human glucagon receptor (GCGR) (Homo sapiens, UniProt P47871); assay: cAMP assay, human GCGR cells; format: cell-based; conditions: cAMP assay
T6 construct: expressed in transfected cells
T6 sequence (P47871 26-477): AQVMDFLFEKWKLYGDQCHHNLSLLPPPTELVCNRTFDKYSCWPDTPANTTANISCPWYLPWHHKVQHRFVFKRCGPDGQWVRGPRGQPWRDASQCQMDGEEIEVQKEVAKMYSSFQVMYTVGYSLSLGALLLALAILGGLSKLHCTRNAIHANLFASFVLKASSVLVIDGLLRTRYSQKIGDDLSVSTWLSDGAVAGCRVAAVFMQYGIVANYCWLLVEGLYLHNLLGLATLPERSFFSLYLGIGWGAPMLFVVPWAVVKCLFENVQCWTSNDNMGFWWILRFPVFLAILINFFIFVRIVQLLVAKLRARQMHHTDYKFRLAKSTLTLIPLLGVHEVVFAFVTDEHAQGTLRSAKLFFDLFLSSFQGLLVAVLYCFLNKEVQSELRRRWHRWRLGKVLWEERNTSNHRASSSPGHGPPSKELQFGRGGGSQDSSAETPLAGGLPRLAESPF
In short: as §1

[3] = target: T7, human glucose-dependent insulinotropic peptide receptor (GIPR) (Homo sapiens, UniProt P48546); assay: cAMP assay, human GIPR cells; format: cell-based; conditions: cAMP assay
T7 construct: expressed in transfected cells
T7 sequence (P48546 22-466): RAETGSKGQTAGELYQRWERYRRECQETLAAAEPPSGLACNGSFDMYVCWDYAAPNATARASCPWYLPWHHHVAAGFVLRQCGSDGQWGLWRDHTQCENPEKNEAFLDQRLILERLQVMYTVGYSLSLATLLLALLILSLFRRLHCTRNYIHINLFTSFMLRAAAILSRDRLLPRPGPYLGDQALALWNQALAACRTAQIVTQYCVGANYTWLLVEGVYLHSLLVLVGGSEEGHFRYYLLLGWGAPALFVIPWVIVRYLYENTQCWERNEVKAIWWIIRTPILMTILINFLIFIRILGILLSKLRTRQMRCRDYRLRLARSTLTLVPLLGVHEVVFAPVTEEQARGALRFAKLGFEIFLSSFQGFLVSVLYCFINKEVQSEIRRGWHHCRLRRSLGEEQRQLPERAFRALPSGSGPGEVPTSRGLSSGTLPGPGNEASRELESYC
In short: as §1

[4] = mean of n1 and n2, read-out: INS1e assay EC50 Mean pM GLP-1R
[5] = replicate n1, read-out: INS1e assay EC50 GLP-1R n1
[6] = replicate n2, read-out: INS1e assay EC50 GLP-1R n2
[7] = cAMP assay, first determination (n1), read-out: Primary assay EC50 GLP-1R n1
[8] = cAMP assay, second determination (n2), read-out: Primary assay EC50 GLP-1R n2
[9] = mean of n1 and n2, read-out: Mean pM GLP-1R
[10] = first determination (n1), read-out: Primary assay EC50 Gluc-R (n1)
[11] = second determination (n2), read-out: Primary assay EC50 Gluc-R (n2)
[12] = first determination (n1), read-out: Primary assay EC50 GIP-R (n1)
[13] = second determination (n2), read-out: Primary assay EC50 GIP-R (n2)

EC50 (GLP-1R (INS1e assay); [4]) [pM]	EC50 (GLP-1R (INS1e assay); [5]) [pM]	EC50 (GLP-1R (INS1e assay); [6]) [pM]	remaining at 0.5 h (Neprilysin) [%]	remaining at 1 h (Neprilysin) [%]	remaining at 2 h (Neprilysin) [%]	remaining at 4 h (Neprilysin) [%]	remaining at 8 h (Neprilysin) [%]	remaining at 24 h (Neprilysin) [%]	Percentage remaining peptide (AUC at specified time-point by RP-HPLC) upon incubation with neprilysin, t = 0 (Neprilysin) [%]	remaining at 0.5 h (trypsin) [%]	remaining at 1 h (trypsin) [%]	remaining at 2 h (trypsin) [%]	remaining at 4 h (trypsin) [%]	remaining at 8 h (trypsin) [%]	remaining at 24 h (trypsin) [%]	EC50 [1, 7] [pM]	EC50 [1, 8] [pM]	EC50 [1, 9] [pM]	remaining at 0.5 h (pepsin) [%]	SMILES	further results
800	729	871	96.8	96.5	93	93.9	89.5	90	100	93	89.2	83.5	75.6	68.9	56.5	3.9	8.2	6.1	89.1	CC[C@H](C)[C@H](NC(=O)[C@H](Cc1ccccc1)NC(=O)[C@H](CCC(=O)O)NC(=O)[C@H](CCCCNC(=O)COCCOCCNC(=O)COCCOCCNC(=O)CC[C@H](NC(=O)CCCCCCCCCCCCCCCCC(=O)O)C(=O)O)NC(=O)[C@H](C)NC(=O)[C@H](C)NC(=O)[C@H](CCC(=O)O)NC(=O)CNC(=O)[C@H](CCC(=O)O)NC(=O)[C@H](CC(C)C)NC(=O)[C@](C)(Cc1ccccc1)NC(=O)[C@H](CO)NC(=O)[C@](C)(CO)NC(=O)[C@@H](NC(=O)[C@H](CC(=O)O)NC(=O)[C@H](CO)NC(=O)[C@@H](NC(=O)[C@](C)(Cc1ccccc1)NC(=O)[C@H](CO)NC(=O)CNC(=O)[C@H](CCC(=O)O)NC(=O)C(C)(C)NC(=O)[C@@H](N)Cc1c[nH]cn1)[C@@H](C)O)C(C)C)C(=O)N[C@@H](C)C(=O)N[C@@](C)(Cc1ccccc1)C(=O)N[C@H](C(=O)N[C@H](C(=O)N[C@@](C)(CCCCN)C(=O)NCC(=O)NCC(N)=O)C(C)C)C(C)C [compound 48]	remaining at 1 h (pepsin): 80.8%; remaining at 2 h (pepsin): 71.4%; remaining at 4 h (pepsin): 60.6%; remaining at 8 h (pepsin): 45.9%; remaining at 24 h (pepsin): 9.4%; EC50 [2, 10]: ≥ 26 nM; EC50 [2, 11]: ≥ 26 nM; EC50 [3, 12]: ≥ 26 nM; EC50 [3, 13]: ≥ 26 nM
3780	2690	4870	97.4	95.4	96.4	95.4	93.9	94.9	100	92.3	86.2	76.8	48.6	39.8	27.4	22.1	15.5	18.8	96.5	CC[C@H](C)[C@H](NC(=O)[C@H](Cc1ccccc1)NC(=O)[C@H](CCC(=O)O)NC(=O)[C@](C)(CCCCN)NC(=O)[C@H](C)NC(=O)[C@H](C)NC(=O)[C@H](CCC(=O)O)NC(=O)CNC(=O)[C@H](CCC(=O)O)NC(=O)[C@H](CC(C)C)NC(=O)[C@](C)(Cc1ccccc1)NC(=O)[C@H](CO)NC(=O)[C@](C)(CO)NC(=O)[C@@H](NC(=O)[C@H](CC(=O)O)NC(=O)[C@H](CO)NC(=O)[C@@H](NC(=O)[C@](C)(Cc1ccccc1)NC(=O)[C@H](CO)NC(=O)CNC(=O)[C@H](CCC(=O)O)NC(=O)C(C)(C)NC(=O)[C@@H](N)Cc1c[nH]cn1)[C@@H](C)O)C(C)C)C(=O)N[C@@H](CCCCNC(=O)COCCOCCNC(=O)COCCOCCNC(=O)CC[C@H](NC(=O)CCCCCCCCCCCCCCCCC(=O)O)C(=O)O)C(=O)N[C@@H](Cc1c[nH]c2ccccc12)C(=O)N[C@H](C(=O)N[C@H](C(=O)N[C@@H](CCC(=O)O)C(=O)NCC(=O)NCC(N)=O)C(C)C)C(C)C [compound 68] (H-H[Aib]EGS[αMeF]TSDV[αMeS]S[αMeF]LEGEAA[αMeK]EFIK([AEEA-AEEA-γGlu-C18 diacid])WVVEGG-NH2; N-terminus assumed)	remaining at 1 h (pepsin): 94.7%; remaining at 2 h (pepsin): 92.2%; remaining at 4 h (pepsin): 88.2%; remaining at 8 h (pepsin): 86%; remaining at 24 h (pepsin): 85.3%; EC50 [2, 10]: ≥ 25 nM; EC50 [2, 11]: ≥ 25 nM; EC50 [3, 12]: ≥ 25 nM; EC50 [3, 13]: ≥ 25 nM
